Literature values in patent publication US20230240985A1, “STABLE PHARMACEUTICAL COMPOSITION OF TOPIRAMATE” (ALKEM LABORATORIES LIMITED, priority 2022, published 2023).

CC1(C)O[C@@H]2[C@@H](CO[C@@]3(COS(N)(=O)=O)OC(C)(C)O[C@@H]23)O1 [Topiramate, 2,3:4,5-Di-O-isopropylidine-β-D-fructopyranose sulfamate]
solubility in organic solvents (acetone, chloroform, dimethylsulfoxide, and ethanol): freely soluble | solubility in alkaline solutions (alkaline solutions containing sodium hydroxide or sodium phosphate, pH of 9 to 10): most soluble | stability in aqueous solution (aqueous solution): not stable | pH of saturated solution (saturated solution): 6.3
